Experimental data published in US20120157471A1, “BENZIMIDAZOLE DERIVATIVES” (PFIZER INC., priority 2009, published 2012).

How the values were obtained:
Gli-Luc/MEF cells (Smo) = assay: Gli-Luc/MEF assay (Shh-stimulated luciferase reporter under the Gli response element); assay type: cell-based, mouse
How it was run: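 IC50 derived from luminescence (Bright-Glo) after 48 h at 37° C, 5% CO2, with compound at […] (3-fold dilutions) added together with mouse Shh at 2 μg/mL final. Cells: MEFs from Gli-Luc transgenic mice.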

[1] = biological target: T1, human Smo (amino acids 181-787) (Homo sapiens, UniProt Q99835); assay: Smo radioligand competition binding assay (displacement of 3H-PF-03451358 from HEK293 membranes); details: for inhibition at 0.05 µM: read-out: SMO % inh. @ 0.05 μM; for IC50: radioligand competition binding
T1 construct: expressed in transfected cells; membrane preparation
T1 sequence (Q99835 181-787): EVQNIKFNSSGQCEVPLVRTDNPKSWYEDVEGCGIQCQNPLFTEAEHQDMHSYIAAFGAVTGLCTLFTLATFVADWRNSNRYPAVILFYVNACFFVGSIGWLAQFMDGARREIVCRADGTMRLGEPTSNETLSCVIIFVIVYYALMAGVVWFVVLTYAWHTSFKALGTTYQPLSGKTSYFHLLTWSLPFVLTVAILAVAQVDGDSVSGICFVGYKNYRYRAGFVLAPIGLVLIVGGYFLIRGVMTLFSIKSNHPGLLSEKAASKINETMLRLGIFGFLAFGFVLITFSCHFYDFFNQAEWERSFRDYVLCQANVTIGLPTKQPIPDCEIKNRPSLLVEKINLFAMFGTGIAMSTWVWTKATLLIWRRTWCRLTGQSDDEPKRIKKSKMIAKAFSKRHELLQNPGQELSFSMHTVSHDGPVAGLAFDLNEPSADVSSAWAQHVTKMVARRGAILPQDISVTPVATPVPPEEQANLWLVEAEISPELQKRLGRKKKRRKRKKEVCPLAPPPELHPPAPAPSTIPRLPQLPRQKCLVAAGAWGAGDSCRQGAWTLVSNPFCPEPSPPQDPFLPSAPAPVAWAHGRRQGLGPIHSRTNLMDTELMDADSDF
How it was run: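 Displacement of 3 nM tritiated PF-03451358 measured by filtration and scintillation counting after 2 h at room temperature, using 40 μg/well HEK293 membranes bearing cell-surface Smo 181-787, pH 7.5 buffer. Specific binding defined against 30 μM unlabelled ligand; IC50 via variable-slope sigmoidal fit.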

[2] = 0.05 μM test compound, displacement of 3H-PF-03451358

CC(=O)N1CCCN(c2cc(-c3nc4ccccc4n3C)c(Cl)cn2)CC1 [Example A-50, 2-[2-(4-acetyl-1,4-diazepan-1-yl)-5-chloropyridin-4-yl]-1-methyl-1H-benzimidazole]
IC50 (Gli-Luc/MEF cells (Smo); Mus musculus, MEF, 48 h): 4 nM
inhibition at 0.05 µM [1, 2]: 100%
IC50 [1]: 7 nM

Cn1c(-c2cc(N3C[C@H]4CNS(=O)(=O)[C@H]4C3)ncc2Cl)nc2ccccc21 (stereo in doubt) [Example A-55, 2-{5-chloro-2-[(3aS,6aR)-1,1-dioxidohexahydro-5H-pyrrolo[3,4-d]isothiazol-5-yl]pyridin-4-yl}-1-methyl-1H-benzimidazole]
IC50 (Gli-Luc/MEF cells (Smo); Mus musculus, MEF, 48 h): 10 nM
inhibition at 0.05 µM [1, 2]: 98%
IC50 [1]: 26 nM

Cn1c(-c2cc(N3CC(c4ccn[nH]4)C3)ncc2Cl)nc2ccccc21 [Example A-120, 2-{5-chloro-2-[3-(1H-pyrazol-5-yl)azetidin-1-yl]pyridin-4-yl}-1-methyl-1H-benzimidazole]
IC50 (Gli-Luc/MEF cells (Smo); Mus musculus, MEF, 48 h): 114 nM
inhibition at 0.05 µM [1, 2]: 62%

Cn1c(-c2cc(N3CCN(C=O)CC3)ncc2Cl)nc2cccnc21 [Example A-170, 4-[5-chloro-4-(3-methyl-3H-imidazo[4,5-b]pyridin-2-yl)pyridin-2-yl]piperazine-1-carbaldehyde]
IC50 (Gli-Luc/MEF cells (Smo); Mus musculus, MEF, 48 h): 118 nM
inhibition at 0.05 µM [1, 2]: 81%
IC50 [1]: 140 nM

Cn1c(-c2cc(N3CCN4C[C@H](O)CC4C3)ncc2Cl)nc2ccccc21 (stereo in doubt) [Example A-60, (7R,8aS)-2-[5-chloro-4-(1-methyl-1H-benzimidazol-2-yl)pyridin-2-yl]octahydropyrrolo[1,2-a]pyrazin-7-ol]
IC50 (Gli-Luc/MEF cells (Smo); Mus musculus, MEF, 48 h): 22 nM
inhibition at 0.05 µM [1, 2]: 96%
IC50 [1]: 27 nM

Cn1c(-c2cc(N3[C@@H]4CC[C@H]3CNC4)ncc2Cl)nc2ccccc21 [Example A-194, 2-{5-chloro-2-[(1R,5S)-3,8-diazabicyclo[3.2.1]oct-8-yl]pyridin-4-yl}-1-methyl-1H-benzimidazole]
IC50 (Gli-Luc/MEF cells (Smo); Mus musculus, MEF, 48 h): 3.7 nM
inhibition at 0.05 µM [1, 2]: 111%
IC50 [1]: 13 nM

CCC(=O)N1CCN(c2cc(-c3nc4ccccc4n3C)c(F)cn2)CC1 [Example D-4, 2-[5-fluoro-2-(4-propionylpiperazin-1-yl)pyridin-4-yl]-1-methyl-1H-benzimidazole]
IC50 (Gli-Luc/MEF cells (Smo); Mus musculus, MEF, 48 h): 20 nM
inhibition at 0.05 µM [1, 2]: 98%
IC50 [1]: 19 nM

C[C@H]1CN(c2cc(-c3nc4ccccc4n3C)c(Cl)cn2)CCN1S(C)(=O)=O [Example A-161, 2-{5-chloro-2-[(3S)-3-methyl-4-(methylsulfonyl)piperazin-1-yl]pyridin-4-yl}-1-methyl-1H-benzimidazole]
IC50 (Gli-Luc/MEF cells (Smo); Mus musculus, MEF, 48 h): 3 nM
inhibition at 0.05 µM [1, 2]: 98%
IC50 [1]: 9 nM

CC(=O)N(C)C1CN(c2cc(-c3nc4ccccc4n3C)c(Cl)cn2)C1 [Example A-177, N-{1-[5-chloro-4-(1-methyl-1H-benzimidazol-2-yl)pyridin-2-yl]azetidin-3-yl}-N-methylacetamide]
IC50 (Gli-Luc/MEF cells (Smo); Mus musculus, MEF, 48 h): 38 nM
inhibition at 0.05 µM [1, 2]: 73%
IC50 [1]: 174 nM

CCNC(=O)NC1CCN(c2cc(-c3nc4ccccc4n3C)c(F)cn2)CC1 [Example D-8, 1-ethyl-3-{1-[5-fluoro-4-{1-methyl-1H-benzimidazol-2-yl)pyridin-2-yl]piperidin-4-yl}urea]
IC50 (Gli-Luc/MEF cells (Smo); Mus musculus, MEF, 48 h): 6 nM
inhibition at 0.05 µM [1, 2]: 95%
IC50 [1]: 6 nM

CNC(=O)NC1CN(c2cc(-c3nc4ccccc4n3C)c(Cl)cn2)C1 [Example A-180, 1-{1-[5-chloro-4-(1-methyl-1H-benzimidazol-2-yl)pyridin-2-yl]azetidin-3-yl}-3-methylurea]
IC50 (Gli-Luc/MEF cells (Smo); Mus musculus, MEF, 48 h): 43 nM
inhibition at 0.05 µM [1, 2]: 89%
IC50 [1]: 60 nM

COC(=O)NC1CCN(c2cc(-c3nc4ccccc4n3C)c(Cl)cn2)C1 (centres unmarked) [Example A-152, methyl {1-[5-chloro-4-(1-methyl-1H-benzimidazol-2-yl)pyridin-2-yl]pyrrolidin-3-yl}carbamate]
IC50 (Gli-Luc/MEF cells (Smo); Mus musculus, MEF, 48 h): 21 nM
inhibition at 0.05 µM [1, 2]: 87%
IC50 [1]: 69 nM

Cn1c(-c2cc(N3CCC(O)CC3)ncc2Cl)nc2cccnc21 [Example A-169, 1-[5-chloro-4-(3-methyl-3H-imidazo[4,5-b]pyridin-2-yl)pyridin-2-yl]piperidin-4-ol]
IC50 (Gli-Luc/MEF cells (Smo); Mus musculus, MEF, 48 h): 138 nM
inhibition at 0.05 µM [1, 2]: 76%
IC50 [1]: 219 nM

CNC(=O)N(C)C1CCN(c2cc(-c3nc4ccccc4n3C)c(Cl)cn2)CC1 [Example A-179, 1-{1-[5-chloro-4-(1-methyl-1H-benzimidazol-2-yl)pyridin-2-yl]piperidin-4-yl}-1,3-dimethylurea]
IC50 (Gli-Luc/MEF cells (Smo); Mus musculus, MEF, 48 h): 7 nM
inhibition at 0.05 µM [1, 2]: 97%
IC50 [1]: 10 nM

CC(=O)N1CCN(c2cc(-c3nc4ccccc4n3C)c(Cl)cn2)[C@@H](C)C1 [Example A-199, 2-{2-[(2S)-4-acetyl-2-methylpiperazin-1-yl]-5-chloropyridin-4-yl}-1-methyl-1H-benzimidazole]
IC50 (Gli-Luc/MEF cells (Smo); Mus musculus, MEF, 48 h): 7.2 nM
inhibition at 0.05 µM [1, 2]: 100%
IC50 [1]: 9 nM

Cn1c(-c2cc(N3CCN(CCS(C)(=O)=O)CC3)ncc2Cl)nc2ccccc21 [Example A-61, 2-(5-chloro-2-{4-[2-(methylsulfonyl)ethyl]piperazin-1-yl}pyridin-4-yl)-1-methyl-1H-benzimidazole]
IC50 (Gli-Luc/MEF cells (Smo); 48 hours): 73 nM
SMO % inh. @ 0.05 μM ([1]; 0.05 μM test compound, displacement of 3H-PF-03451358, 0.05 µM): 96%
IC50 [1]: 18 nM

Cn1c(-c2nc(N3CCC(O)CC3)ccc2Cl)nc2ccccc21 [Example B-6, 1-[5-chloro-6-(1-methyl-1H-benzimidazol-2-yl)pyridin-2-yl]piperidin-4-ol]
IC50 (Gli-Luc/MEF cells (Smo); Mus musculus, MEF, 48 h): 12 nM
inhibition at 0.05 µM [1, 2]: 95%
IC50 [1]: 10 nM

Cn1c(-c2cc(N3CCC(OC(N)=O)CC3)ncc2Cl)nc2ccccc21 [Example A-203, 1-[5-chloro-4-(1-methyl-1H-benzimidazol-2-yl)pyridin-2-yl]piperidin-4-yl carbamate]
IC50 (Gli-Luc/MEF cells (Smo); Mus musculus, MEF, 48 h): 12.5 nM
inhibition at 0.05 µM [1, 2]: 94%
IC50 [1]: 11 nM

COC(=O)N(C)C1CCN(c2cc(-c3nc4ccccc4n3C)c(Cl)cn2)C1 (centres unmarked) [Example A-178, methyl {1-[5-chloro-4-(1-methyl-1H-benzimidazol-2-yl)pyridin-2-yl]pyrrolidin-3-yl}methylcarbamate]
IC50 (Gli-Luc/MEF cells (Smo); Mus musculus, MEF, 48 h): 17 nM
inhibition at 0.05 µM [1, 2]: 92%
IC50 [1]: 43 nM

C[C@@H]1CN(c2cc(-c3nc4ccccc4n3C)c(Cl)cn2)CCN1S(C)(=O)=O [Example A-158, 2-{5-chloro-2-[(3R)-3-methyl-4-(methylsulfonyl)piperazin-1-yl]pyridin-4-yl}-1-methyl-1H-benzimidazole]
IC50 (Gli-Luc/MEF cells (Smo); Mus musculus, MEF, 48 h): 2 nM
inhibition at 0.05 µM [1, 2]: 99%
IC50 [1]: 9 nM

Cc1nnc2n1CCN(c1cc(-c3nc4ccccc4n3C)c(Cl)cn1)CC2 [Example A-67, 7-[5-chloro-4-(1-methyl-1H-benzimidazol-2-yl)pyridin-2-yl]-3-methyl-6,7,8,9-tetrahydro-5H-[1,2,4]triazolo[4,3-d][1,4]diazepine]
IC50 (Gli-Luc/MEF cells (Smo); Mus musculus, MEF, 48 h): 26 nM
inhibition at 0.05 µM [1, 2]: 94%
IC50 [1]: 33 nM

CCS(=O)(=O)N1CCN(c2cc(-c3nc4ccccc4n3C)c(F)cn2)CC1 [Example D-5, 2-{2-[4-(ethylsulfonyl)piperazin-1-yl]-5-fluoropyridin-4-yl}-1-methyl-1H-benzimidazole]
IC50 (Gli-Luc/MEF cells (Smo); Mus musculus, MEF, 48 h): 17 nM
inhibition at 0.05 µM [1, 2]: 97%
IC50 [1]: 18 nM

COC(=O)N1CCN(c2cc(-c3nc4ccccc4n3C)c(F)cn2)CC1 [Example D-2, methyl 4-[5-fluoro-4-(1-methyl-1H-benzimidazol-2-yl)pyridin-2-yl]piperazine-1-carboxylate]
IC50 (Gli-Luc/MEF cells (Smo); Mus musculus, MEF, 48 h): 13 nM
inhibition at 0.05 µM [1, 2]: 95%
IC50 [1]: 13 nM

CNC(=O)N1CCN(c2cc(-c3nc4ccccc4n3C)c(Cl)cn2)CC1 [Example A-3, 4-[5-chloro-4-(1-methyl-1H-benzimidazol-2-yl)pyridin-2-yl]-N-methylpiperazine-1-carboxamide]
IC50 (Gli-Luc/MEF cells (Smo); Mus musculus, MEF, 48 h): 9 nM
inhibition at 0.05 µM [1, 2]: 93%
IC50 [1]: 14.1 nM

C[C@H]1CN(c2cc(-c3nc4ccccc4n3C)c(Cl)cn2)CCN1 [Example A-160, 2-{5-chloro-2-[(3S)-3-methylpiperazin-1-yl]pyridin-4-yl}-1-methyl-1H-benzimidazole]
IC50 (Gli-Luc/MEF cells (Smo); Mus musculus, MEF, 48 h): 7 nM
inhibition at 0.05 µM [1, 2]: 98%
IC50 [1]: 16 nM

Cn1c(-c2cc(N3CCC(N4CCCC4=O)CC3)ncc2Cl)nc2ccccc21 [Example A-81, 1-{1-[5-chloro-4-(1-methyl-1H-benzimidazol-2-yl)pyridin-2-yl]piperidin-4-yl}pyrrolidin-2-one]
IC50 (Gli-Luc/MEF cells (Smo); Mus musculus, MEF, 48 h): 10 nM
inhibition at 0.05 µM [1, 2]: 91%
IC50 [1]: 24 nM

CN(CCO)c1cc(-c2nc3ccccc3n2C)c(Cl)cn1 [Example A-164, 2-{[5-chloro-4-(1-methyl-1H-benzimidazol-2-yl)pyridin-2-yl](methyl)amino}ethanol]
IC50 (Gli-Luc/MEF cells (Smo); Mus musculus, MEF, 48 h): 14 nM
inhibition at 0.05 µM [1, 2]: 97%
IC50 [1]: 15 nM

CC(=O)N1CCCN(c2cc(-c3nc4cccnc4n3C)c(Cl)cn2)CC1 [Example A-39, 2-[2-(4-acetyl-1,4-diazepan-1-yl)-5-chloropyridin-4-yl]-3-methyl-3H-imidazo[4,5-b]pyridine]
IC50 (Gli-Luc/MEF cells (Smo); Mus musculus, MEF, 48 h): 30 nM
inhibition at 0.05 µM [1, 2]: 92%
IC50 [1]: 45 nM

COC(=O)NC1CCN(c2cc(-c3nc4ccccc4n3C)c(Cl)cn2)CC1 [Example A-32, methyl {1-[5-chloro-4-(1-methyl-1H-benzimidazol-2-yl)pyridin-2-yl]piperidin-4-yl}carbamate]
IC50 (Gli-Luc/MEF cells (Smo); Mus musculus, MEF, 48 h): 1 nM
inhibition at 0.05 µM [1, 2]: 89%
IC50 [1]: 7 nM

CCNC(=O)N1CCN(c2cc(-c3nc4ccccc4n3C)c(F)cn2)CC1 [Example D-3, N-ethyl-4-[5-fluoro-4-(1-methyl-1H-benzimidazol-2-yl)pyridin-2-yl]piperazine-1-carboxamide]
IC50 (Gli-Luc/MEF cells (Smo); Mus musculus, MEF, 48 h): 10 nM
inhibition at 0.05 µM [1, 2]: 98%
IC50 [1]: 8 nM
